Source: ChEMBL document CHEMBL1145080, “Synthesis and cyclooxygenase-2 inhibiting property of 1,5-diarylpyrazoles with substituted benzenesulfonamide moiety as pharmacophore: Preparation of sodium salt for injectable formulation” (J Med Chem, 2003)
The source made the active and inactive calls. The rule behind the calls is not given here.

Key:
[1] = test system: Rattus norvegicus; assay: Evaluated in vivo for antiinflammatory activity at 30 mg/kg oral dose in the carrageenan-induced rat paw edema (male Wistar rat); type: functional
[2] = Pharmacokinetic parameter Cmax was determined in male Wistar rat after 100 mg/kg oral dose of the compound; type: ADME, organism-based; design: dose 100 mg/kg, route oral; conditions: in vivo
[3] = Pharmacokinetic parameter Tmax was determined in male Wistar rat after 100 mg/kg oral dose of the compound; type: ADME, organism-based; design: dose 100 mg/kg, route oral; conditions: in vivo
[4] = Pharmacokinetic parameter AUC(area under curve) was determined in male Wistar rat after 100 mg/kg oral dose of the compound; type: ADME, organism-based; design: dose 100 mg/kg, route oral; conditions: in vivo
[5] = target: T1, Prostaglandin G/H synthase 1 (Ovis aries) (UniProt P05979); assay: In vitro inhibition of Prostaglandin G/H synthase 1 (from ram seminal vesicles) at a concentration of […]
T1 sequence (whole entry): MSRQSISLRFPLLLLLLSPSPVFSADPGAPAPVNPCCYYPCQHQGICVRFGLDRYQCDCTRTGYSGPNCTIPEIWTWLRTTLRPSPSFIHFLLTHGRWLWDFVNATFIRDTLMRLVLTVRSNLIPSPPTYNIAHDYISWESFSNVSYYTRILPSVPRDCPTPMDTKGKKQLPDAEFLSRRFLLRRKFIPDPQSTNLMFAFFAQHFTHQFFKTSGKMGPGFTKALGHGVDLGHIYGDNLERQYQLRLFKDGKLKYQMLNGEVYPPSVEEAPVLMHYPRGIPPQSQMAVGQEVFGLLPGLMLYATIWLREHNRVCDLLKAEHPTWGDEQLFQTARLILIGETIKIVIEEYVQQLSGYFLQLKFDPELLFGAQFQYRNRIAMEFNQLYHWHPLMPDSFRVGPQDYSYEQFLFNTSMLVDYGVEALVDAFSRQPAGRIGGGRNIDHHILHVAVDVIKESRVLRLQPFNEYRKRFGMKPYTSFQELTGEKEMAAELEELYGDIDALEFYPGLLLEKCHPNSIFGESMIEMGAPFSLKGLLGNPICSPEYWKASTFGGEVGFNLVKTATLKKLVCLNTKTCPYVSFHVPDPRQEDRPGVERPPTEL

[6] = test system: Rattus norvegicus; assay: Evaluated in vivo for oral dose required to produce antiinflammatory activity in the rat paw edema assay (male Wistar rat); type: functional
[7] = target: T2, Prostaglandin G/H synthase 1 (Ovis aries, UniProt P05979)
T2 sequence (P05979 whole entry): T1 sequence (whole entry)
Description: In vitro inhibition against Prostaglandin G/H synthase 1 from ram seminal vesicles

[8] = Partition coefficient (logP); type: physicochemical; conditions: octanol/water
[9] = test system: Rattus norvegicus; assay: Evaluated in vivo for antiinflammatory activity at 30 mg/kg oral dose in the carrageenan-induced rat paw edema (male Wistar rat); Not active; type: functional, organism-based; design: dose 30 mg/kg

inhibition [5] | SMILES | inhibition in vivo at 30 mg/kg [1] | other results
18% | CCC(=O)[N-]S(=O)(=O)c1ccc(-n2nc(C(F)(F)F)cc2-c2ccc(OC)cc2)c(F)c1.[Na+] | 78% | ED50 [6]: 6 mg/kg
29% | CSc1ccc(-c2cc(C(F)(F)F)nn2-c2ccc(S(N)(=O)=O)cc2F)cc1 | 33% | IC50 [7]: 24.3 µM; logP [8]: 3.81; Cmax [2]: 3210 ng/mL; Tmax [3]: 1.26 h; AUC [4]: 6650 ng·h/mL
0% | CCCC(=O)NS(=O)(=O)c1ccc(-n2nc(C(F)(F)F)cc2-c2ccc(F)cc2)c(F)c1 | 22% | 
0% | COc1ccc(-c2cc(C(F)(F)F)nn2-c2ccc(S(N)(=O)=O)c(F)c2)cc1 | 52% | IC50 [7]: > 170 µM; ED30 [6]: 1 mg/kg; ED50 [6]: 12.7 mg/kg
34% | CCCC(=O)NS(=O)(=O)c1ccc(-n2nc(C(F)(F)F)cc2-c2ccc(SC)cc2)c(F)c1 | 40% | 
13% | COc1ccc(-c2cc(C(F)(F)F)nn2-c2ccc(S(N)(=O)=O)cc2F)cc1 | 26% | IC50 [7]: > 30 µM; logP [8]: 3.14; Cmax [2]: 3300 ng/mL; Tmax [3]: 7.5 h; AUC [4]: 46400 ng·h/mL
26% | CC(=O)NS(=O)(=O)c1ccc(-n2nc(C(F)(F)F)cc2-c2ccc(F)cc2)c(F)c1 | 44% | 
0% | CCC(=O)NS(=O)(=O)c1ccc(-n2nc(C(F)(F)F)cc2-c2ccc(F)cc2)c(F)c1 | 38% | 
32% | CCCC(=O)NS(=O)(=O)c1ccc(-n2nc(C(F)(F)F)cc2-c2ccc(OC)cc2)c(F)c1 | 42% | 

More lines, now with the values behind:

SMILES | inhibition [5] | inhibition in vivo at 30 mg/kg [1] | other results
CS(=O)(=O)c1ccc(C2=C(c3ccccc3)C(=O)OC2)cc1 [ROFECOXIB] |  | 37% | Cmax [2]: 5610 ng/mL; Tmax [3]: 3 h; AUC [4]: 57900 ng·h/mL
COc1ccc(-c2cc(C(F)(F)F)nn2-c2ccc(S(N)(=O)=O)c(C)c2)cc1 | 75% |  | 
CCC(=O)NS(=O)(=O)c1ccc(-n2nc(C(F)(F)F)cc2-c2ccc(SC)cc2)c(F)c1 |  | 37% | 
COc1ccc2c(c1)c(CC(=O)O)c(C)n2C(=O)c1ccc(Cl)cc1 | 100% |  | 
CC(=O)NS(=O)(=O)c1ccc(-n2nc(C(F)(F)F)cc2-c2ccc(C)cc2)cc1 | 10% | 27% | 
CCC(=O)[N-]S(=O)(=O)c1ccc(-c2c(-c3ccccc3)noc2C)cc1.[Na+] [PARECOXIB SODIUM] |  |  | ED50 [6]: 5 mg/kg
CCCC(=O)[N-]S(=O)(=O)c1ccc(-n2nc(C(F)(F)F)cc2-c2ccc(C)cc2)cc1.[Na+] | 2% | 63% | ED50 [6]: 6.69 mg/kg
CCC(=O)NS(=O)(=O)c1ccc(-n2nc(C(F)(F)F)cc2-c2ccc(C)cc2)cc1 | 0% | 30% | 
COc1ccc(-c2cc(C(F)(F)F)nn2-c2ccc(S(=O)(=O)NC(=O)C(C)(C)C)cc2F)cc1 | 16% |  | inhibition [9]: inactive
Cc1ccc(-c2cc(C(F)(F)F)nn2-c2ccc(S(N)(=O)=O)cc2)cc1 [CELECOXIB] |  | 49% | ED50 [6]: 7.9 mg/kg; logP [8]: 3.01; Cmax [2]: 2470 ng/mL; Tmax [3]: 3.25 h; AUC [4]: 23200 ng·h/mL
